Earlier results on 1 compound are cited in US12605362B2, “Eletriptan hydrobromide for treatment of spinal cord injury and improvement of locomotor function” (TECHNOPHAGE, INVESTIGAÇÃO E DESENVOLVIMENTO EM …, priority 2020, dated 2026).

The conditions of the data set: in the presence of the selective 5-HT2 antagonists SB204741 and SB242084; cited from earlier work.

As to `c1ccc2nc(N3CCNCC3)ccc2c1` [quipazine], the locomotor-like movements entry was “induction in locomotor-like movements”.
